This passage reports IC50 results from patent US11365192B2, “Pyridine compound substituted with azole” (TAISHO PHARMACEUTICAL CO., LTD., priority 2017, dated 2022).

pIC50: −log10 of the molar value.

In one test the target is human CYP4F2 (Homo sapiens (Human), UniProt P78329). Kind of test: Inhibition test against 20-HETE producing enzyme CYP4F2 (luciferine derivative, luminescence). It is filed as biochemical. On the procedure:
(§1) (1) Inhibition Test for Each Compound of the Present Invention Against 20-HETE Producing Enzymes (CYP4F2 and CYP4A11)
(§2) In the CYP4F2 inhibition test, the reaction solution containing each compound [final concentration of 50 mM, KPO4 (pH 7.4), 2.5 μM luciferine derivative, and 1 mM NADPH] was added to an Escherichia coli membrane fraction (100 μg/mL protein) in which human CYP4F2 had been expressed. In the CYP4A11 inhibition test, the reaction solution containing each compound [final concentration of 100 mM, Tris-HCl (pH 7.5), 60 μM luciferine derivative, 1.3 mM NADP^+, 3.3 mM Glucose 6-Phosphate, 3.3 mM MgCl2, and 0.4 U/mL Glucose 6-Phosphate dehydrogenase] was added to an Escherichia coli membrane fraction (100 μg/mL protein) in which human CYP4A11 had been expressed. Following this, the membrane fraction was left to stand at room temperature for 60 minutes to perform an enzymatic reaction. After the reaction, a luciferine detection reagent was added, and the luminescence value was measured using a plate reader. By using that value, the percent inhibition of 20-HETE producing enzyme (%) was calculated according to the equation described below, and the 50% inhibitory concentration (IC50 value) for each compound was calculated. Percent inhibition of 20-HETE producing enzyme (%)=[1−(A−B)/(C−B)]*100
(§3) A: Luminescence value with addition of compound
(§4) B: Luminescence value without addition of compound and enzyme

A further test deals with human CYP4A11 (Homo sapiens (Human), UniProt Q02928). Description: Inhibition test against 20-HETE producing enzyme CYP4A11 (luciferine derivative, luminescence). It is filed as biochemical. On the procedure: as §1, §2, §3, §4
Chain of human CYP4A11 (Q02928 5-519): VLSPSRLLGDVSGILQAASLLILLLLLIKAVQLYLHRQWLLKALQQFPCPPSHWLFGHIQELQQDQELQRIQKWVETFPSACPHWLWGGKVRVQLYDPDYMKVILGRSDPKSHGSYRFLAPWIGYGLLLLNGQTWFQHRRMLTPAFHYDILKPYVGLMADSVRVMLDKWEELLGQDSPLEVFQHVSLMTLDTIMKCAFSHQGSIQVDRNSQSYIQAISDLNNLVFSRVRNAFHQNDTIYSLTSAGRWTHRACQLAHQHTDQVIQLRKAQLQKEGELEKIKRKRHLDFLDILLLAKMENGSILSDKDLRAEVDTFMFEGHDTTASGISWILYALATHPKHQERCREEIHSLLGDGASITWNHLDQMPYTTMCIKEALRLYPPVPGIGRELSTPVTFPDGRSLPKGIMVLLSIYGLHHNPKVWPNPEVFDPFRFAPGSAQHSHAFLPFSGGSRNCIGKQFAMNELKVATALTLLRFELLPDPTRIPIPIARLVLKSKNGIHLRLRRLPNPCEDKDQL
Setting [1] is: E. coli membrane fraction expressing human CYP4F2, 2.5 μM luciferine derivative, room temperature 60 minutes.
The mark [2] stands for this setting: E. coli membrane fraction expressing human CYP4A11, 60 μM luciferine derivative, room temperature 60 minutes.
Where [3] appears, read: human CYP4F2, luciferine derivative, luminescence.
Where [4] appears, read: human CYP4A11, luciferine derivative, luminescence.

Chain of human CYP4F2 (P78329 5-520): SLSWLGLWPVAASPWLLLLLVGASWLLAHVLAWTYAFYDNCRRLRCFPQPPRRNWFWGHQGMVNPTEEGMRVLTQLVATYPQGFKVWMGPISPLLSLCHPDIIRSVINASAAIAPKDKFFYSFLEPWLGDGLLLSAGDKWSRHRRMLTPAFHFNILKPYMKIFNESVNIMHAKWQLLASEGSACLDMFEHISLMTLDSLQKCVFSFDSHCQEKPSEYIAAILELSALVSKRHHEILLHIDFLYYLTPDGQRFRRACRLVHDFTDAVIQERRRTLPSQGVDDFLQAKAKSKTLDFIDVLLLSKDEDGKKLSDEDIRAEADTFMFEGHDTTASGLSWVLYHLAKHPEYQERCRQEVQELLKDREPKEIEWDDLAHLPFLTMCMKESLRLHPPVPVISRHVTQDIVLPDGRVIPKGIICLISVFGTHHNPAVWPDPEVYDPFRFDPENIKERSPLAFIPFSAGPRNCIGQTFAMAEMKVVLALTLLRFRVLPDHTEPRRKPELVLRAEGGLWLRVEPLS

As usually defined, the pIC50 is the negative decadic logarithm of the IC50, by convention in mol/L. For `OCc1cccc(COc2ccc(-c3ccn[nH]3)nc2)c1` [Example 23-5], the results for the pIC50 at human CYP4F2 (setting [1]) and at human CYP4A11 (setting [2]) were 6.89 and 6.32, respectively.

Regarding `O=C(O)CCC(=O)N1CCC[C@H](COc2ccc(-c3ccn[nH]3)nc2)C1` [Example 1-23], the pIC50 was 4.70 at human CYP4F2 (setting [1]) and 6.49 against human CYP4A11 (setting [2]).

Regarding `O=C(O)c1ccc(CCOc2ccc(-c3ccn[nH]3)nc2)cc1` [Example 1-5], the pIC50 on human CYP4F2 (setting [1]) was 5.46; on human CYP4A11 (setting [2]), 6.82.

Regarding `O=C(O)C1(CCCCCCCOc2ccc(-c3ccn[nH]3)nc2)CCCC1` [Example 1-45], the pIC50 at human CYP4F2 (setting [1]) is 7.72; against human CYP4A11 (setting [2]), 7.34.

For the compound `O=C(O)c1cccc(CCCCCOc2ccc(-c3ccn[nH]3)nc2)n1` [Example 71-14], the negative-log IC50 (pIC50) against human CYP4F2 (setting [3]) is 5.89; against human CYP4A11 (setting [4]) it was 6.82.

As for `O=C(O)c1cccc(OCCOc2ccc(-c3ccn[nH]3)nc2)c1` [Example 18-6], the pIC50 at human CYP4F2 (setting [1]) is 5.21; against human CYP4A11 (setting [2]), 6.51.

`CS(=O)(=O)c1cc(COc2ccc(-c3ccn[nH]3)nc2)ccc1O` [Example 20-1, 2-Methylsulfonyl-4-[[6-(1H-pyrazol-5-yl)-3-pyridinyl]oxymethyl]phenol]: the pIC50 against human CYP4F2 (setting [1]) is 5.96; against human CYP4A11 (setting [2]) it was 4.55.

Regarding `O=C(O)C1(CCCCOc2ccc(-c3ccn[nH]3)nc2)CCCCC1` [Example 1-35], the values for the pIC50 against human CYP4F2 (setting [1]) and against human CYP4A11 (setting [2]) were 5.66 and 7.08, respectively.

For the compound `O=C(O)CCCc1ccc(COc2ccc(-c3ccn[nH]3)nc2)cc1` [Example 30-2], the values for the pIC50 against human CYP4F2 (setting [1]) and against human CYP4A11 (setting [2]) were 6.72 and 6.80, respectively.

`C[C@@H](NC(=O)c1cccc(COc2ccc(-c3ccn[nH]3)nc2)c1)C(=O)O` [Example 45-10]: the pIC50 at human CYP4F2 (setting [3]) was 5.00; against human CYP4A11 (setting [4]), 6.74.

For `O=C(O)/C=C/c1cccc(CCOc2ccc(-c3ccn[nH]3)nc2)c1` [Example 70-4], the values for the pIC50 against human CYP4F2 (setting [3]) and against human CYP4A11 (setting [4]) were 7.25 and 6.82, respectively.

In the case of `Cc1cn[nH]c1-c1ccc(OCC23CCC(C(=O)O)(CC2)CC3)cn1` [Example 38-3, 1-[[6-(4-Methyl-1H-pyrazol-5-yl)-3-pyridinyl]oxymethyl]-4-bicyclo[2.2.2]octanecarboxylic Acid], the pIC50 against human CYP4F2 (setting [1]) is 4.77; against human CYP4A11 (setting [2]), 7.46.

With `Oc1cc(CCCOc2ccc(-c3ccn[nH]3)nc2)ccc1F` [Example 11-3], the values for the negative-log IC50 (pIC50) against human CYP4F2 (setting [1]) and against human CYP4A11 (setting [2]) were 8.14 and 6.57, respectively.

Consider `CC(C)(C(=O)O)c1cccc(CCCOc2ccc(-c3ccn[nH]3)nc2)c1` [Example 32-2], for which the pIC50 on human CYP4F2 (setting [1]) was 5.89; against human CYP4A11 (setting [2]) it was 7.66.

For `O=C(O)[C@H]1C[C@](O)(c2cccc(COc3ccc(-c4ccn[nH]4)nc3)c2)C1` [Example 28-1, 3-Hydroxy-3-[3-[[6-(1-H-pyrazol-5-yl)-3-pyridinyl]oxymethyl]phenyl]-1-cyclobutanecarboxylic Acid], the pIC50 at human CYP4F2 (setting [1]) was 6.33; against human CYP4A11 (setting [2]), 7.21.

Turning to `C[C@@H](CO)NC(=O)CCc1cccc(COc2ccc(-c3ccn[nH]3)nc2)c1` [Example 43-7], the negative logarithm of the IC50 (pIC50) against human CYP4F2 (setting [3]) was 7.20; at human CYP4A11 (setting [4]) it was 6.49.

Take `CN(CCCCCCOc1ccc(-c2ccn[nH]2)nc1)C(=O)C1(C(=O)O)CCCC1` [Example 3-10]: the results for the pIC50 against human CYP4F2 (setting [1]) and on human CYP4A11 (setting [2]) were 6.60 and 7.04, respectively.

As for `O=C(O)C12CCC(COc3ccc(-c4[nH]ncc4Cl)nc3)(CC1)CC2` [Example 1-20], the negative logarithm of the IC50 (pIC50) is 5.04 on human CYP4F2 (setting [1]) and 7.80 at human CYP4A11 (setting [2]).

For the compound `O=C(O)c1ccc(-c2cccc(COc3ccc(-c4ccn[nH]4)nc3)c2)nc1` [Example 18-2], the pIC50 at human CYP4F2 (setting [1]) is 6.64; against human CYP4A11 (setting [2]) it was 7.92.

In the case of `O=C(O)c1cccc(CCCOc2ccc(-c3ccn[nH]3)nc2)c1` [Example 1-9], the pIC50 against human CYP4F2 (setting [1]) is 6.32; against human CYP4A11 (setting [2]) it was 7.10.

As for `NC(=O)c1cc(COc2ccc(-c3[nH]ncc3C(F)F)nc2)ccn1` [Example 67-1, 4-[[6-[4-(Difluoromethyl)-1H-pyrazol-5-yl]-3-pyridinyl]oxymethyl]-2-pyridinecarboxamide], the values for the pIC50 on human CYP4F2 (setting [1]) and at human CYP4A11 (setting [2]) were 5.57 and less than 4.30, respectively.

For `CC(C)(C(=O)O)c1cccc(COc2ccc(-c3ccn[nH]3)nc2)c1` [Example 24-2, Sodium 2-methyl-2-[3-[[6-(1H-pyrazol-5-yl)-3-pyridinyl]oxymethyl]phenyl]propanoate], the pIC50 against human CYP4F2 (setting [1]) is 5.46; at human CYP4A11 (setting [2]), 7.80.

Consider `O=C(O)c1cncc(-c2cccc(COc3ccc(-c4ccn[nH]4)nc3)c2)n1` [Example 18-3], for which the pIC50 against human CYP4F2 (setting [1]) was 6.29; on human CYP4A11 (setting [2]), 7.62.

`O=C(O)C1(OCCCCCCCOc2ccc(-c3ccn[nH]3)nc2)CCCC1` [Example 2-3]: the results for the pIC50 against human CYP4F2 (setting [1]) and at human CYP4A11 (setting [2]) were 7.12 and 7.00, respectively.

Regarding `O=C(NCC1(C(=O)O)CCCC1)c1cccc(COc2ccc(-c3ccn[nH]3)nc2)c1` [Example 45-5], the pIC50 was 6.12 against human CYP4F2 (setting [3]) and 7.13 against human CYP4A11 (setting [4]).

Turning to `O=C(O)c1ccnc(-c2cccc(COc3ccc(-c4ccn[nH]4)nc3)c2)c1` [Example 8-10], the pIC50 against human CYP4F2 (setting [1]) is 5.89; on human CYP4A11 (setting [2]), 7.46.

Consider `CC(C)(OCCCOCCCCOc1ccc(-c2ccn[nH]2)nc1)C(=O)O` [Example 9-3], for which the pIC50 was 6.31 against human CYP4F2 (setting [1]) and 5.85 against human CYP4A11 (setting [2]).

Regarding `CC(C)(CC(=O)N1CCC(COc2ccc(-c3ccn[nH]3)nc2)CC1)C(=O)O` [Example 46-1, 2,2-Dimethyl-4-oxo-4-[4 [[6-(1H-pyrazol-5-yl)-3-pyridinyl]oxymethyl]-1-piperidinyl]butanoic Acid], the pIC50 was 5.12 against human CYP4F2 (setting [1]) and 5.49 against human CYP4A11 (setting [2]).

As for `CC(C)(CCNC(=O)c1cncc(COc2ccc(-c3ccn[nH]3)nc2)c1)C(=O)O` [Example 45-17], the pIC50 is 6.00 against human CYP4F2 (setting [3]) and 6.29 on human CYP4A11 (setting [4]).

For the compound `O=C(O)[C@@H]1CCCN(C(=O)c2cccc(COc3ccc(-c4ccn[nH]4)nc3)c2)C1` [Example 45-28], the figures for the pIC50 on human CYP4F2 (setting [3]) and at human CYP4A11 (setting [4]) were 5.43 and 6.57, respectively.

In the case of `CO[C@H](C)CNC(=O)CCc1cccc(COc2ccc(-c3ccn[nH]3)nc2)c1` [Example 43-12], the results for the negative logarithm of the IC50 (pIC50) against human CYP4F2 (setting [3]) and against human CYP4A11 (setting [4]) were 7.40 and 7.12, respectively.

Turning to `O=C(O)C1CC1c1ccc(F)c(CCOc2ccc(-c3ccn[nH]3)nc2)c1` (single isomer, unassigned) [Example 74-7], the results for the pIC50 on human CYP4F2 (setting [3]) and against human CYP4A11 (setting [4]) were 5.89 and 7.11, respectively.

`COC(=O)N1CCC(O)(c2cccc(COc3ccc(-c4ccn[nH]4)nc3)c2)CC1` [Example 51-1, Methyl 4-hydroxy-4-[3-[[6-(1-H-pyrazol-5-yl)-3-pyridinyl]oxymethyl]phenyl]-1-piperidinecarboxylate]: the pIC50 at human CYP4F2 (setting [1]) is 8.52; at human CYP4A11 (setting [2]), 6.57.

As to `O=C(O)/C=C/c1cccc(COc2ccc(-c3ccn[nH]3)nc2)c1F` [Example 70-1, (E)-3-[2-Fluoro-3-[[6-(1H-pyrazol-5-yl)pyridin-3-yl]oxymethyl]phenyl]prop-2-enoic Acid], the pIC50 on human CYP4F2 (setting [3]) is 7.31; against human CYP4A11 (setting [4]) it was 7.57.

For the compound `OCc1ccc(COc2ccc(-c3ccn[nH]3)nc2)cc1` [Example 23-4], the figures for the pIC50 against human CYP4F2 (setting [1]) and at human CYP4A11 (setting [2]) were 7.29 and 5.70, respectively.

For `O=C(O)[C@H]1CC[C@@H](COc2ccc(-c3ccn[nH]3)nc2)CC1` [Example 1-50], the pIC50 on human CYP4F2 (setting [1]) was 4.64; on human CYP4A11 (setting [2]) it was 6.77.

Regarding `CS(=O)(=O)c1cc(O)cc(COc2ccc(-c3ccn[nH]3)nc2)c1` [Example 20-2], the pIC50 at human CYP4F2 (setting [1]) is 7.16; against human CYP4A11 (setting [2]) it was 6.68.

`Oc1cc(CCCOc2ccc(-c3ccn[nH]3)nc2)cc(F)c1F` [Example 11-1, 2,3-Difluoro-5-[3-[[6-(1H-pyrazol-5-yl)-3-pyridinyl]oxy]propyl]phenol]: the pIC50 against human CYP4F2 (setting [1]) is 8.29; against human CYP4A11 (setting [2]), 6.85.

Turning to `O=C(O)[C@H]1C[C@](O)(c2cc(COc3ccc(-c4ccn[nH]4)nc3)ccc2F)C1` [Example 28-2], the negative logarithm of the IC50 (pIC50) was 6.00 on human CYP4F2 (setting [1]) and 7.00 against human CYP4A11 (setting [2]).

As to `CC(C)(COc1cccc(CCOc2ccc(-c3ccn[nH]3)nc2)n1)C(=O)O` [Example 71-37], the values for the pIC50 at human CYP4F2 (setting [3]) and on human CYP4A11 (setting [4]) were 5.46 and 6.80, respectively.

Consider `C[C@H](NC(=O)c1cccc(COc2ccc(-c3ccn[nH]3)nc2)c1)C(=O)O` [Example 45-9], for which the results for the pIC50 at human CYP4F2 (setting [3]) and at human CYP4A11 (setting [4]) were 5.32 and 7.09, respectively.

With `O=C(O)c1cccc(CCOc2ccc(-c3ccn[nH]3)nc2)c1` [Example 1-6], the results for the pIC50 at human CYP4F2 (setting [1]) and on human CYP4A11 (setting [2]) were 5.64 and 6.47, respectively.

Regarding `COCCNC(=O)CCc1cccc(COc2ccc(-c3ccn[nH]3)nc2)c1` [Example 43-5], the results for the negative logarithm of the IC50 (pIC50) on human CYP4F2 (setting [3]) and on human CYP4A11 (setting [4]) were 7.40 and 7.09, respectively.

Take `Oc1cc(COc2ccc(-c3ccn[nH]3)nc2)ccc1F` [Example 12-2]: the results for the pIC50 on human CYP4F2 (setting [1]) and at human CYP4A11 (setting [2]) were 7.96 and 6.51, respectively.

For the compound `C[C@@H](O)CNC(=O)CCc1cccc(COc2ccc(-c3ccn[nH]3)nc2)c1` [Example 43-6], the pIC50 against human CYP4F2 (setting [3]) was 7.04; at human CYP4A11 (setting [4]), 7.25.
